35 compounds from patent publication US12110286B2, “Benzimidazolone derived inhibitors of BCL6” (Cancer Research Technology Limited, priority 2017, dated 2024) can be followed below.

Each structure is given as a SMILES string.

One assay deals with Trx-6×His-BCL6 (human BCL6 BTB domain covering amino-acid sequence 5-129) (Homo sapiens (Human), UniProt P41182). Put plainly: HTRF in vitro assay (BCL6 / BCOR-AF633 peptide). In kind it is binding. The following applies: further generated data; 1 nM Trx-6×His-BCL6, 300 nM BCOR-AF633 peptide, 0.5 nM anti-6×His-Terbium cryptate. As to the method: The % inhibition at each concentration was calculated by normalising FRET ratio to the appropriate high (DMSO with all reagents) and low (DMSO without BCL6) controls.
(TR-FRET usually uses a lanthanide donor and a delayed reading to cut background.)
As to `Cn1c(=O)n(CCC(C)(C)O)c2cc(Nc3nc(N4CCOCC4)ncc3Cl)ccc21` [Example 20t], the “HTRF pIC50” value came to 6.51.
Take `CCC1(Cn2c(=O)n(C)c3ccc(Nc4ccnc(Cl)c4C#N)cc32)CNC(=O)O1` (centres unmarked) [Example 22c]: the “HTRF pIC50” value came to 5.76.
Same read-out and setting: the result for `Cn1c(=O)n(C)c2cc(Nc3cc(C(=O)O)nc(Cl)c3C#N)ccc21` [Example 1c, 6-chloro-5-cyano-4-[(1,3-dimethyl-2-oxo-benzimidazol-5-yl)amino]pyridine-2-carboxylic acid] reads 6.08; that for `CC[C@]1(O)CCC[C@H]1Cn1c(=O)n(C)c2ccc(Nc3ccnc(Cl)c3C#N)cc21` [Example 22m], 5.52; that for `C[C@@H]1CN(c2cc(Nc3ccc4c(c3)n(CCC(C)(C)O)c(=O)n4C)c(Cl)cn2)C[C@H](C)O1` [Example 36b, 5-((5-chloro-2-((2R,6S)-2,6-dimethylmorpholino)pyridin-4-yl)amino)-3-(3-hydroxy-3-methylbutyl)-1-methyl-1,3-dihydro-2H-benzo[d]imidazol-2-one], 5.99.
On the same count and under the same terms, the result for `CN(C)C(=O)C1CCN(c2cc(Nc3ccc4c(c3)n(CCC(C)(C)O)c(=O)n4C)c(Cl)cn2)CC1` [Example 36c, 1-(5-chloro-4-((3-(3-hydroxy-3-methylbutyl)-1-methyl-2-oxo-2,3-dihydro-1H-benzo[d]imidazol-5-yl)amino)pyridin-2-yl)-N,N-dimethylpiperidine-4-carboxamide] reads 5.88.
Still for that read-out and setting: with `Cn1c(=O)n(CCC(C)(C)O)c2cc(Nc3nc(OCC(F)(F)F)ncc3Cl)ccc21` [Example 39a, 5-((5-Chloro-2-(2,2,2-trifluoroethoxy)pyrimidin-4-yl)amino)-3-(3-hydroxy-3-methylbutyl)-1-methyl-1,3-dihydro-2H-benzo[d]imidazol-2-one] the figure was 6.09; with `Cc1cc(C)n(-c2cc(Nc3ccc4c(c3)n(CCC(C)(C)O)c(=O)n4C)c(C#N)cn2)n1` [Example 15o], 5.88; with `Cn1c(=O)n(CCC(C)(C)O)c2cc(Nc3nc(N4CCC(n5cccn5)CC4)ncc3Cl)ccc21` [Example 42i, 5-((2-(4-(1H-pyrazol-1-yl)piperidin-1-yl)-5-chloropyrimidin-4-yl)amino)-3-(3-hydroxy-3-methylbutyl)-1-methyl-1,3-dihydro-2H-benzo[d]imidazol-2-one], 6.85.
Consider `C[C@@H]1CN(c2ncc(Cl)c(Nc3cc4c(cc3F)n(C)c(=O)n4CCC(C)(C)O)n2)C[C@H](C)O1` [Example 20p], for which the “HTRF pIC50” value is listed as 6.44.
In the case of `Cn1c(=O)n(CCC2(O)CCC2)c2cc(Nc3ccnc(Cl)c3C#N)ccc21` [Example 18a, 2-chloro-4-((3-(2-(1-hydroxycyclobutyl)ethyl)-1-methyl-2-oxo-2,3-dihydro-1H-benzo[d]imidazol-5-yl)amino)nicotinonitrile], the “HTRF pIC50” value came to 5.90.
As for `Cn1c(=O)n(CCC(C)(C)O)c2cc(Nc3ccnc(Cl)c3Cl)ccc21` [Example 29b, 5-((2,3-dichloropyridin-4-yl)amino)-3-(3-hydroxy-3-methylbutyl)-1-methyl-1,3-dihydro-2H-benzo[d]imidazol-2-one], the “HTRF pIC50” value is reported as 5.88.
For `CCOC(CCn1c(=O)n(C)c2ccc(Nc3ccnc(Cl)c3C#N)cc21)C(=O)OC` (centres unmarked) [Example 10c], the “HTRF pIC50” value was found to be 5.69.
On the same count and under the same terms, with `CCN(C)c1ncc(Cl)c(Nc2ccc3c(c2)n(CCC(C)(C)O)c(=O)n3C)n1` [Example 20i] the figure was 6.17.
Same read-out and setting: with `C#CCC(C)(O)CCn1c(=O)n(C)c2ccc(Nc3ccnc(Cl)c3C#N)cc21` (centres unmarked) [Example 27a, 2-chloro-4-((3-(3-hydroxy-3-methylhex-5-yn-1-yl)-1-methyl-2-oxo-2,3-dihydro-1H-benzo[d]imidazol-5-yl)amino)nicotinonitrile] the figure was 5.86; with `Cc1cc(C)n(-c2ncc(Cl)c(Nc3ccc4c(c3)[nH]c(=O)n4C)n2)n1` [Example 15h], 5.86.
The same measure, in the same setting: with `CC(C)Nc1ncc(Cl)c(Nc2ccc3c(c2)n(CCC(C)(C)O)c(=O)n3C)n1` [Example 20f] the figure was 5.99.
For the compound `COC(=O)C(C)Cn1c(=O)n(C)c2ccc(Nc3ccnc(Cl)c3C#N)cc21` (centres unmarked) [Example 3b, Methyl 3-[6-[(2-chloro-3-cyano-4-pyridyl)amino]-3-methyl-2-oxo-benzimidazol-1-yl]-2-methyl-propanoate], the “HTRF pIC50” value turned out to be 5.35.
On the same count and under the same terms, with `C[C@@H]1CN(c2ncc(Cl)c(Nc3ccc4c(c3)n(CCC(C)(C)O)c(=O)n4CCO)n2)C[C@H](C)C1(F)F` [Example 40a, 5-[[5-chloro-2-[(3S,5R)-4,4-difluoro-3,5-dimethyl-1-piperidyl]pyrimidin-4-yl]amino]-1-(2-hydroxyethyl)-3-(3-hydroxy-3-methyl-butyl)benzimidazol-2-one] the figure was 6.49; with `C[C@@H](O)CCn1c(=O)n(C)c2ccc(Nc3cc(Cl)ncc3Cl)cc21` [Example 1m, 5-[(2,5-dichloro-4-pyridyl)amino]-3-[(3R)-3-hydroxybutyl]-1-methyl-benzimidazol-2-one], 5.47; with `COC(=O)C(C)CCn1c(=O)n(C)c2ccc(Nc3ccnc(Cl)c3C#N)cc21` (centres unmarked) [Example 1j, Methyl 4-[6-[(2-chloro-3-cyano-4-pyridyl)amino]-3-methyl-2-oxo-benzimidazol-1-yl]-2-methyl-butanoate], 5.78.
Still for that read-out and setting: with `Cn1c(=O)n(CCS(C)(=O)=O)c2cc(Nc3ccnc(Cl)c3C#N)ccc21` [Example 18b, 2-chloro-4-((1-methyl-3-(2-(methylsulfonyl)ethyl)-2-oxo-2,3-dihydro-1H-benzo[d]imidazol-5-yl)amino)nicotinonitrile] the figure was 5.31; with `Cn1c(=O)n(CCC(C)(C)O)c2cc(Nc3nc(N4C[C@H]5CCCC[C@H]5C4)ncc3Cl)ccc21` [Example 35o, 5-((5-chloro-2-((3aR,7aS)-octahydro-2H-isoindo1-2-yl)pyrimidin-4-yl)amino)-3-(3-hydroxy-3-methylbutyl)-1-methyl-1,3-dihydro-2H-benzo[d]imidazol-2-one], 6.04; with `Cc1cc(C)n(-c2nc(C)c(Cl)c(Nc3ccc4c(c3)n(CCC(C)(C)O)c(=O)n4C)n2)n1` [Example 15p], 5.82.
Same read-out and setting: with `Cn1c(=O)n(CCC(C)(C)O)c2cc(Nc3nc(N4CCOC(CO)C4)ncc3Cl)ccc21` (centres unmarked) [Example 42j, 5-((5-chloro-2-(2-(hydroxymethyl)morpholino)pyrimidin-4-yl)amino)-3-(3-hydroxy-3-methylbutyl)-1-methyl-1,3-dihydro-2H-benzo[d]imidazol-2-one] the figure was 6.81.
Turning to `COC(=O)C(O)CCn1c(=O)n(C)c2ccc(Nc3ccnc(Cl)c3C#N)cc21` (centres unmarked) [Example 9, Methyl 4-[6-[(2-chloro-3-cyano-4-pyridyl)amino]-3-methyl-2-oxo-benzimidazol-1-yl]-2-hydroxy-butanoate], the “HTRF pIC50” value amounted to 5.97.
Still for that read-out and setting: with `Cc1nc(C)c(-c2ncc(Cl)c(Nc3ccc4c(c3)n(CCC(C)(C)O)c(=O)n4C)n2)s1` [Example 23c] the figure was 5.99.

Still in this assay, the particulars now being: initially generated data; 10 nM Trx-6×His-BCL6, 300 nM BCOR-AF633 peptide, 1 nM anti-6×His-Terbium cryptate.
For `Cn1c(=O)n(C)c2cc(Nc3cc(C(=O)O)nc(Cl)c3C#N)ccc21` [Example 1c, 6-chloro-5-cyano-4-[(1,3-dimethyl-2-oxo-benzimidazol-5-yl)amino]pyridine-2-carboxylic acid], the “HTRF pIC50” value is 6.05.
On the same count and under the same terms, with `CCOC(CCn1c(=O)n(C)c2ccc(Nc3ccnc(Cl)c3C#N)cc21)C(=O)OC` (centres unmarked) [Example 10c] the figure was 5.65; with `COC(=O)C(C)Cn1c(=O)n(C)c2ccc(Nc3ccnc(Cl)c3C#N)cc21` (centres unmarked) [Example 3b, Methyl 3-[6-[(2-chloro-3-cyano-4-pyridyl)amino]-3-methyl-2-oxo-benzimidazol-1-yl]-2-methyl-propanoate], 5.39.
As for `C[C@@H](O)CCn1c(=O)n(C)c2ccc(Nc3cc(Cl)ncc3Cl)cc21` [Example 1m, 5-[(2,5-dichloro-4-pyridyl)amino]-3-[(3R)-3-hydroxybutyl]-1-methyl-benzimidazol-2-one], the “HTRF pIC50” value stood at 5.62.
`COC(=O)C(C)CCn1c(=O)n(C)c2ccc(Nc3ccnc(Cl)c3C#N)cc21` (centres unmarked) [Example 1j, Methyl 4-[6-[(2-chloro-3-cyano-4-pyridyl)amino]-3-methyl-2-oxo-benzimidazol-1-yl]-2-methyl-butanoate]: the “HTRF pIC50” value turned out to be 5.67.
For `C[C@@H](O)CCn1c(=O)n(C)c2ccc(Nc3cc(C(=O)O)nc(Cl)c3C#N)cc21` [Example 1e, 6-chloro-5-cyano-4-[[3-[(3R)-3-hydroxybutyl]-1-methyl-2-oxo-benzimidazol-5-yl]amino]pyridine-2-carboxylic acid], the “HTRF pIC50” value amounted to 6.01.
The same measure, in the same setting: with `COC(=O)C(O)CCn1c(=O)n(C)c2ccc(Nc3ccnc(Cl)c3C#N)cc21` (centres unmarked) [Example 9, Methyl 4-[6-[(2-chloro-3-cyano-4-pyridyl)amino]-3-methyl-2-oxo-benzimidazol-1-yl]-2-hydroxy-butanoate] the figure was 5.83.

Staying with this assay, now noted: result in words.
Consider `Cn1c(=O)n(CCC(C)(C)O)c2cc(Nc3nc(Cl)ncc3Cl)ncc21` [6-((2,5-dichloropyrimidin-4-yl)amino)-1-(3-hydroxy-3-methylbutyl)-3-methyl-1,3-dihydro-2H-imidazo[4,5-c]pyridin-2-one], for which the “activity in the HTRF assay” value is given as “did not exhibit the desired activity”.
For the compound `CN1CCC[C@@H]1Cn1c(=O)n(C)c2ccc(Nc3ccnc(Cl)c3C#N)cc21` [(R)-2-chloro-4-((1-methyl-3-((1-methylpyrrolidin-2-yl)methyl)-2-oxo-2,3-dihydro-1H-benzo[d]imidazol-5-yl)amino)nicotinonitrile], the “activity in the HTRF assay” value is reported as “did not exhibit the desired activity”.
For `Cn1c(=O)n(CCc2ccccc2)c2cc(Nc3ccnc4ccnn34)ccc21` [1-methyl-3-phenethyl-5-(pyrazolo[1,5-a]pyrimidin-7-ylamino)-1,3-dihydro-2H-benzo[d]imidazol-2-one], the “activity in the HTRF assay” value is listed as “did not exhibit the desired activity”.
On the same count and under the same terms, the result for `Cn1c(=O)n(CCC(C)(C)O)c2cc(Nc3cc(-n4ccc(C(F)(F)F)n4)ncc3Cl)ncc21` [6-((5-chloro-2-(3-(trifluoromethyl)-1H-pyrazol-1-yl)pyridin-4-yl)amino)-1-(3-hydroxy-3-methylbutyl)-3-methyl-1,3-dihydro-2H-imidazo[4,5-c]pyridin-2-one] reads “did not exhibit the desired activity”; that for `COc1c(Cl)ncnc1Nc1ccc2c(c1)n(C)c(=O)n2C` [5-((6-chloro-5-methoxypyrimidin-4-yl)amino)-1,3-dimethyl-1,3-dihydro-2H-benzo[d]imidazol-2-one], “did not exhibit the desired activity”.
As to `Cn1c(=O)n(CCC(C)(C)O)c2cc(Nc3nc(N4CCC(F)(F)CC4)ncc3Cl)ncc21` [6-((5-chloro-2-(4,4-difluoropiperidin-1-yl)pyrimidin-4-yl)amino)-1-(3-hydroxy-3-methylbutyl)-3-methyl-1,3-dihydro-2H-imidazo[4,5-c]pyridin-2-one], the “activity in the HTRF assay” value is “did not exhibit the desired activity”.
As to `Cc1nccc(Nc2ccc3c(c2)n(C)c(=O)n3C)c1C#N` [4-((1,3-dimethyl-2-oxo-2,3-dihydro-1H-benzo[d]imidazol-5-yl)amino)-2-methylnicotinonitrile], the “activity in the HTRF assay” value is recorded as “did not exhibit the desired activity”.
